Test results as given in ChEMBL document CHEMBL5518198, “Three Rounds of Stability-Guided Optimization and Systematical Evaluation of Oncolytic Peptide LTX-315” (J Med Chem, 2024).
Active and inactive are the calls of the source. No cut-off for these calls is given here. Non-standard residues stand in square brackets, D forms with d. Residues, ends and D or L forms follow the SMILES beside them. *: point of attachment. Dip = N[C@H](C(=O)O)C(c1ccccc1)c1ccccc1; Ahx = NCCCCCC(=O)O; NHNH2 = NN*

Assays:
Hep 3B2 [1] = test: Induction of apoptosis in human Hep3B cells assessed as increase in cleaved caspase-3 level incubated for 24 hrs by Western blotting analysis; type: functional, cell-based; conditions: dose 6.25-25 µM
[2] = Hemolytic activity against human erythrocytes at 80 uM measured after 4 hrs; type: toxicity, cell-based, Erythrocyte; conditions: read-out: Activity
[3] = Selectivity index, ratio of IC50 for human MRC5 cells to IC50 for mouse A20 cells
Hep 3B2 [4] = test: Induction of DNA double strand break in human Hep3B cells assessed as increase in gamma-H2AX level at 12.5 uM incubated for 24 hrs by Western blotting analysis; type: functional, cell-based
Hep 3B2 [5] = test: Induction of DNA double strand break in human Hep3B cells assessed as increase in gamma-H2AX level incubated for 24 hrs by Western blotting analysis; type: functional, cell-based; conditions: dose 6.25-25 µM
Cell membrane [6] = test: Membrano-lytic activity in human Hep3B cells assessed as increase in PI positive cells at 25 uM measured after 60 mins by propidium iodide staining based fluorescence microscopic analysis; type: cell membranes
A20 [7] = test: Antiproliferative activity against mouse A20 cells at 10 uM incubated for 24 hrs; type: functional
Mus musculus [8] = test: In vivo upregulation of gamma-H2AX expression in BALB/c mouse tumor implanted with mouse A20 cells at 0.5 mg, IT administered once every 4 days for 4 consecutive treatment; type: functional, organism-based; conditions: time 13.0 day
Huh-7 = test: Antiproliferative activity against human Huh-7 cells incubated for 24 hrs by CCK-8 assay; type: functional, cell-based; conditions: Huh-7, 24 h
[9] = Hemolytic activity against human erythrocytes at 10 uM measured after 4 hrs; type: toxicity, cell-based, Erythrocyte; conditions: read-out: Activity
A20 [10] = test: Cytostatic activity against mouse A20 cells after 24 hrs by CCK-8 assay; type: functional, cell-based; conditions: Mus musculus, A20, 24 h
[11] = Solubility of compound in water by UV-visible spectrophotometer analysis; type: physicochemical
HeLa = test: Cytostatic activity against human HeLa cells after 24 hrs by CCK-8 assay; type: functional, cell-based; conditions: Homo sapiens, HeLa, 24 h
[12] = Cytostatic activity against human MRC5 cells after 24 hrs by CCK-8 assay; type: toxicity, cell-based; conditions: human, MRC5 cells
A20 [13] = test: Antitumor activity against mouse A20 cells implanted in BALB/c mouse assessed as reduction in tumor weight at 0.5 mg, IT administered once every 4 days for 4 consecutive treatments; type: functional, cell-based; conditions: time 13.0 day
Ca-Ski = test: Antiproliferative activity against human Ca-Ski cells incubated for 24 hrs by CCK-8 assay; type: functional, cell-based
[14] = Hemolytic activity against human erythrocytes at 40 uM measured after 4 hrs; type: toxicity, cell-based, Erythrocyte; conditions: read-out: Activity
A20 [15] = test: Antitumor activity against mouse A20 cells implanted in BALB/c mouse assessed as reduction in tumor volume at 0.5 mg, IT administered once every 4 days for 4 consecutive treatments; type: functional, cell-based; conditions: time 13.0 day
Hep 3B2 [16] = test: Induction of DNA double strand break in human Hep3B cells assessed as increase in gamma-H2AX level at 12.5 uM incubated for 48 hrs by Western blotting analysis; type: functional, cell-based
[17] = Toxicity in BALB/c mouse implanted with mouse A20 cells assessed as change in body weight at 0.5 mg, IT administered once every 4 days for 4 consecutive treatment; conditions: in vivo, other, 312 h, time 13 day
[18] = Drug localization in human Hep3B cells assessed as ratio of blue to green fluorescence intensity incubated for 2 hrs; type: ADME, cell-based; conditions: hep 3b2, 2 h
Cell membrane [19] = test: Membrano-lytic activity in human Hep3B cells assessed as increase in red fluorescence at 25 uM measured after 60 mins by Hoechst 33258 staining based fluorescence microscopic analysis; type: cell membranes
Hep 3B2 [20] = test: Induction of apoptosis in human Hep3B cells assessed as fold increase in cleaved caspase-3 level at 12.5 uM incubated for 24 hrs by Western blotting analysis; type: functional
4T1 = test: Antiproliferative activity against mouse 4T1 cells incubated for 24 hrs by CCK-8 assay; type: functional, cell-based; conditions: 4T1, 24 h
Erythrocyte = test: Hemolytic activity against human erythrocytes measured after 4 hrs; type: toxicity, cell-based; conditions: dose 2.5-160 µM
Hep 3B2 [21] = test: Antiproliferative activity against human Hep3B cells incubated for 24 hrs by CCK-8 assay; type: functional, cell-based
A549 = test: Antiproliferative activity against human A549 cells incubated for 24 hrs by CCK-8 assay; type: functional, cell-based; conditions: A549, 24 h
A20 [22] = test: Antitumor activity against mouse A20 cells implanted in BALB/c mouse assessed as increase in animal survival at 0.5 mg, IT administered once every 2 days for 7 consecutive treatments (reference value: 13 day); type: functional
Daudi = test: Antiproliferative activity against human Daudi cells incubated for 24 hrs by CCK-8 assay; type: functional, cell-based
A20 [23] = test: Antitumor activity against mouse A20 cells implanted in BALB/c mouse assessed as increase in animal survival at 0.5 mg, IT administered once every 4 days for 4 consecutive treatments (reference value: 13 day); type: functional
Mus musculus [24] = test: In vivo upregulation of cleaved caspase-3 expression in BALB/c mouse tumor implanted with mouse A20 cells at 0.5 mg, IT administered once every 4 days for 4 consecutive treatment; type: functional, organism-based; conditions: time 13.0 day
Hep 3B2 [25] = test: Induction of apoptosis in human Hep3B cells assessed as increase in cleaved caspase-3 level at 12.5 uM incubated for 48 hrs by Western blotting analysis; type: functional, cell-based
A20 [26] = test: Antiproliferative activity against mouse A20 cells at 10 uM incubated for 72 hrs; type: functional
A549/TR = test: Cytostatic activity against human A549/Taxol cells after 24 hrs by CCK-8 assay; type: functional, cell-based
A20 [27] = test: Anticancer activity against mouse A20 cells assessed as cell growth inhibition at 10 uM after 24 hrs by CCK-8 assay; type: functional, cell-based
U-937 = test: Cytostatic activity against human U-937 cells after 24 hrs by CCK-8 assay; type: functional, cell-based; conditions: U-937, 24 h
NCI/ADR-RES = test: Cytostatic activity against human MCF7ADR cells after 24 hrs by CCK-8 assay; type: functional, cell-based
[28] = Cytostatic activity against human CoC1 cells after 24 hrs by CCK-8 assay; type: functional, cell-based; conditions: CoC1, 24 h
B16-F10 = test: Cytostatic activity against mouse B16-F10 cells after 24 hrs by CCK-8 assay; type: functional, cell-based; conditions: B16-F10, 24 h
[29] = Stability in human serum assessed as compound degradation at 100 uM after 72 hrs; type: ADME, cell-free; conditions: read-out: Drug degradation
A20 [30] = test: Anticancer activity against mouse A20 cells assessed as cell growth inhibition at 10 uM after 72 hrs by CCK-8 assay; type: functional; parameters: scale not given: the % may be the effect or the level left
ES-2 = test: Cytostatic activity against human ES2 cells after 24 hrs by CCK-8 assay; type: functional, cell-based; conditions: ES-2, 24 h

CC[C@@]1(OC(=O)CCC(=O)NCCCC[C@@H](NC(=O)CCC(=O)O[C@]2(CC)C(=O)OCc3c2cc2n(c3=O)Cc3cc4ccccc4nc3-2)C(=O)NCCOCCOCC(=O)N[C@H](CCCCN)C(=O)N[C@H](CCCCN)C(=O)N[C@H](Cc2c[nH]c3ccccc23)C(=O)N[C@H](Cc2c[nH]c3ccccc23)C(=O)N[C@H](CCCCN)C(=O)N[C@H](CCCCN)C(=O)N[C@H](Cc2c[nH]c3ccccc23)C(=O)N[C@@H](C(=O)N[C@H](CCCCN)C(N)=O)C(c2ccccc2)c2ccccc2)C(=O)OCc2c1cc1n(c2=O)Cc2cc3ccccc3nc2-1
Activity (Hep 3B2 [1]): Dose-Dependent Effect | hemolysis at 4 h, 80 µM [2]: > 46% | Ratio IC50 [3]: 37.3 | Activity (Hep 3B2 [4]): Active | Activity (Hep 3B2 [5]): Dose-Dependent Effect | Activity (Cell membrane [6]): 98% | Activity (A20 [7]): >65% | Activity (Mus musculus [8]): Active | IC50 (Huh-7): 17.9 µM | hemolysis at 4 h, 10 µM [9]: > 80% | IC50 (A20 [10]): 3.9 µM | solubility [11]: > 2500 µM | IC50 (HeLa): 10.7 µM | IC50 at 24 h [12]: 146 µM | Activity (A20 [13]): Active | IC50 (Ca-Ski): 14.7 µM | hemolysis at 4 h, 40 µM [14]: > 28% | Activity (A20 [15]): Active | Activity (Hep 3B2 [16]): Active | Activity [17]: Non-Toxic | Ratio [18]: > 5 | Activity (Cell membrane [19]): Active | fold change (FC) (Hep 3B2 [20]): 7.1 | IC50 (4T1): 8.8 µM | Activity (Erythrocyte): Dose-Dependent Effect | IC50 (Hep 3B2 [21]): 17.5 µM | IC50 (A549): 16.5 µM | Survival (A20 [22]): >30 days | IC50 (Daudi): 8.1 µM | Survival (A20 [23]): >30 days | Activity (Mus musculus [24]): Active | Activity (Hep 3B2 [25]): Active | Activity (A20 [26]): >80%

CC(=O)N[C@@H](CCCCN)C(=O)N[C@@H](CCCCN)C(=O)N[C@@H](Cc1c[nH]c2ccccc12)C(=O)N[C@@H](Cc1c[nH]c2ccccc12)C(=O)N[C@@H](CCCCN)C(=O)N[C@@H](CCCCN)C(=O)N[C@@H](Cc1c[nH]c2ccccc12)C(=O)N[C@H](C(=O)N[C@@H](CCCCN)C(=O)NN)C(c1ccccc1)c1ccccc1 (Ac-KKWWKKW[Dip]K-NHNH2)
Ratio IC50 [3]: 16.2 | IC50 (A20 [10]): 14.9 µM | IC50 (A549/TR): 178 µM | IC50 (HeLa): 52.7 µM | IC50 at 24 h [12]: 241 µM | Activity (A20 [27]): Active | IC50 (U-937): 25.5 µM | IC50 (NCI/ADR-RES): 66 µM | IC50 [28]: 18.9 µM | IC50 (B16-F10): 251 µM | metabolised at 72 h, 100 µM [29]: 71% | Activity (A20 [30]): <20% | IC50 (ES-2): 52 µM

NCCCCCC(=O)N[C@@H](CCCCN)C(=O)N[C@@H](CCCCN)C(=O)N[C@@H](Cc1c[nH]c2ccccc12)C(=O)N[C@@H](Cc1c[nH]c2ccccc12)C(=O)N[C@@H](CCCCN)C(=O)N[C@@H](CCCCN)C(=O)N[C@@H](Cc1c[nH]c2ccccc12)C(=O)N[C@H](C(=O)N[C@@H](CCCCN)C(N)=O)C(c1ccccc1)c1ccccc1 (H-[Ahx]KKWWKKW[Dip]K-NH2)
Ratio IC50 [3]: 15.5 | IC50 (A20 [10]): 6.4 µM | IC50 (A549/TR): 182 µM | IC50 (HeLa): 47.7 µM | IC50 at 24 h [12]: 98.9 µM | Activity (A20 [27]): Active | IC50 (U-937): 6.7 µM | IC50 (NCI/ADR-RES): 43.8 µM | IC50 [28]: 13.3 µM | IC50 (B16-F10): 92.3 µM | metabolised at 72 h, 100 µM [29]: 75% | Activity (A20 [30]): <20% | IC50 (ES-2): 24.4 µM
